Measured values as given in US8247170B2, “Detection of penicillin tolerance in Group B Streptococcus: single nucleotide polymorphisms in penicillin binding protein 4” (priority 2008, dated 2012).

System: GBS clinical isolates and laboratory strains
Assay: Macrobroth penicillin tolerance assay
Format: cell-based, Group B Streptococcus
Conditions: then 24 h drug-free; for 100xMIC, regrowth O.D.600: Penicillin G 100×MIC90 48 h; for 300xMIC, regrowth O.D.600: Penicillin G 300×MIC90 48 h; for 10xMIC, regrowth O.D.600: Penicillin G 10×MIC90 48 h; for 30xMIC, regrowth O.D.600: Penicillin G 30×MIC90 48 h
Procedure: Using this modified penicillin tolerance assay, tolerant strains from the GBS clinical isolates can be more efficiently identified. In this macrobroth culture format, 25 ml THB broth GBS cultures (containing clinical isolates) were grown to an early exponential growth phase (˜0.2 OD600). Cell cultures (6 ml) were collected and divided into 4 culture tubes. […] Cell cultures were shaken at 150 rpm in order to maintain cells in suspension for proper growth. Subcultures (1/20 dilution) of cells were put into fresh THB containing […] Penase (i.e., 100 μl of Penase 10,000 U stock into 4 ml THB culture). Subcultures were allowed to grow for 24 hours at 37° C. Cell growth was monitored by OD (see Example 2).
(I) Bacterial Strains and Culture Conditions. GBS strains A909 (serotype IA), 515 (serotype IA), NEM316 (serotype III), COHI (serotype III), 2603V/R (serotype V) and O90R (non-typable) were used in this study. E. coli Top10 cells were used for the recombination experiments. GBS was cultured in Todd Hewitt broth (THB) or Tryptic Soy 5% sheep blood (TS) media and E. coli in Luria-broth (LB) medium or agar. Antibiotics were used at the following concentrations: for GBS—penicillin G (MIC90 0.06 μg ml^−1), ampicillin (MIC90 0.12 μg ml^−1), vancomycin (MIC90 2 μg ml^−1), cefazolin (MIC90 1 μg ml^−1) and chloramphenicol (5 μg ml^−1); for E. coli—ampicillin (50 μg ml^−1) and chloramphenicol (5 μg ml^−1). Both GBS and E. coli cultures were grown at 37° C. (II) Tolerance Using the MBC:MIC Ratio Method. Three GBS laboratory strains (i.e., A909, NEM316, and O90R) were cultured overnight for 18 h at 37° C. in THB. Subcultures in THB were subsequently grown to exponential phase (OD600˜0.3; i.e. 5×10^5 cfu/ml) at 37° C. Cell cultures were then exposed to different concentrations of antibiotics (Penicillin G, Ampicillin, Cefozolin or Vancomycin). […] Cell cultures were dispersed every 18 h before OD600 was measured to determine the lowest concentration of antibiotic with 90% growth inhibition (MIC90). Antibiotic treated cells (8 μl) from each well were re-suspended into PBS (100 μl) and plated (54 μl) on TS agar plates and allowed to grow for an additional 24 h at 37° C. Cell count was performed to determine the lowest concentration of antibiotic with 90% killing of original inoculums (MBC90). (III) Penicillin Killing and Regrowth Tolerance Assay by Microbroth Dilution. Three GBS laboratory strains (i.e., A909, NEM316, and O90R) were cultured overnight for 18 h at 37° C. in THB. Subcultures in THB were subsequently grown to exponential phase (OD600˜0.3) at 37° C. Cell cultures were then exposed to different concentrations of Penicillin G (Sigma, St. Louis, Mo.). […] Cell cultures were dispersed. A 1:20 dilution of cells was re-plated into new wells containing fresh THB with 500 U Penase (to degrade residual penicillin). Cell cultures were allowed to re-grow for an additional 24 h at 37° C. before the OD600 was measured. (IV) Measuring Cell Viability by Determining ATP Concentration. GBS strains were cultured for 18 h at 37° C. in THB. These cells were inoculated into fresh THB and subsequently allowed to grow to exponential phase (OD600 0.25-0.3) at 37° C. One ml of each culture was centrifuged at 5,000×g for 4 min. The cell pellet was re-suspended in ATP-free water. Cellular ATP was extracted using trichloroacetic acid (TCA) (5%) for 2 min and subsequently neutralized with Tris-EDTA-0.1M NaOAc, pH 7.75 to 10×TCA volume. The initial (in.) cellular ATP concentration ([ATP]) was measured using the ENLITEN (Promega) luciferase based reaction kit. THB cultures were then treated with 100×MIC90 Penicillin G for 22 h. The experimental (exp.) cellular ATP was extracted and the concentration was measured as stated above. Based on the calculations ([ATP] exp.)/([ATP] in./O.D. in.), differences in viability were equated with the change in [ATP]. (V) Measuring Penicillin Induced Lysis. Three GBS laboratory strains (A909, NEM316, and O90R) were cultured for 18 h at 37° C. in THB. […]

## CC1(C)S[C@@H]2[C@H](NC(=O)Cc3ccccc3)C(=O)N2[C@H]1C(=O)O [Penicillin G]
GBS strain 47 (III)
  100xMIC, regrowth O.D.600: −− (“−−” indicates an O.D.600 of 0.001 to 0.099)
  300xMIC, regrowth O.D.600: −− (“−−” indicates an O.D.600 of 0.001 to 0.099)
GBS strain 60 (NT)
  10xMIC, regrowth O.D.600: + (“+” indicates an O.D.600 of 0.100 to 0.250)
  30xMIC, regrowth O.D.600: ++ (“++” indicates an O.D.600 of 0.251 to 0.750)
  100xMIC, regrowth O.D.600: + (“+” indicates an O.D.600 of 0.100 to 0.250)
  300xMIC, regrowth O.D.600: + (“+” indicates an O.D.600 of 0.100 to 0.250)
GBS strain 68 (III)
  10xMIC, regrowth O.D.600: + (“+” indicates an O.D.600 of 0.100 to 0.250)
  30xMIC, regrowth O.D.600: −− (“−−” indicates an O.D.600 of 0.001 to 0.099)
  100xMIC, regrowth O.D.600: + (“+” indicates an O.D.600 of 0.100 to 0.250)
  300xMIC, regrowth O.D.600: + (“+” indicates an O.D.600 of 0.100 to 0.250)
GBS strain 71 (III)
  10xMIC, regrowth O.D.600: −− (“−−” indicates an O.D.600 of 0.001 to 0.099)
  30xMIC, regrowth O.D.600: −− (“−−” indicates an O.D.600 of 0.001 to 0.099)
  100xMIC, regrowth O.D.600: −− (“−−” indicates an O.D.600 of 0.001 to 0.099)
  300xMIC, regrowth O.D.600: −− (“−−” indicates an O.D.600 of 0.001 to 0.099)
GBS strain 90 (Ib)
  10xMIC, regrowth O.D.600: −− (“−−” indicates an O.D.600 of 0.001 to 0.099)
  30xMIC, regrowth O.D.600: −− (“−−” indicates an O.D.600 of 0.001 to 0.099)
  100xMIC, regrowth O.D.600: −− (“−−” indicates an O.D.600 of 0.001 to 0.099)
  300xMIC, regrowth O.D.600: −− (“−−” indicates an O.D.600 of 0.001 to 0.099)
GBS strain 91 (III)
  10xMIC, regrowth O.D.600: −− (“−−” indicates an O.D.600 of 0.001 to 0.099)
  30xMIC, regrowth O.D.600: −− (“−−” indicates an O.D.600 of 0.001 to 0.099)
  100xMIC, regrowth O.D.600: −− (“−−” indicates an O.D.600 of 0.001 to 0.099)
  300xMIC, regrowth O.D.600: −− (“−−” indicates an O.D.600 of 0.001 to 0.099)
GBS strain 93 (Ib)
  10xMIC, regrowth O.D.600: −− (“−−” indicates an O.D.600 of 0.001 to 0.099)
  30xMIC, regrowth O.D.600: −− (“−−” indicates an O.D.600 of 0.001 to 0.099)
  100xMIC, regrowth O.D.600: −− (“−−” indicates an O.D.600 of 0.001 to 0.099)
  300xMIC, regrowth O.D.600: −− (“−−” indicates an O.D.600 of 0.001 to 0.099)
GBS strain 97 (V)
  10xMIC, regrowth O.D.600: −− (“−−” indicates an O.D.600 of 0.001 to 0.099)
  30xMIC, regrowth O.D.600: ++ (“++” indicates an O.D.600 of 0.251 to 0.750)
  100xMIC, regrowth O.D.600: ++ (“++” indicates an O.D.600 of 0.251 to 0.750)
  300xMIC, regrowth O.D.600: ++ (“++” indicates an O.D.600 of 0.251 to 0.750)
GBS strain 101 (NT)
  10xMIC, regrowth O.D.600: −− (“−−” indicates an O.D.600 of 0.001 to 0.099)
  30xMIC, regrowth O.D.600: −− (“−−” indicates an O.D.600 of 0.001 to 0.099)
  100xMIC, regrowth O.D.600: −− (“−−” indicates an O.D.600 of 0.001 to 0.099)
  300xMIC, regrowth O.D.600: −− (“−−” indicates an O.D.600 of 0.001 to 0.099)
GBS strain 117 (Ia)
  10xMIC, regrowth O.D.600: + (“+” indicates an O.D.600 of 0.100 to 0.250)
  30xMIC, regrowth O.D.600: + (“+” indicates an O.D.600 of 0.100 to 0.250)
  100xMIC, regrowth O.D.600: + (“+” indicates an O.D.600 of 0.100 to 0.250)
  300xMIC, regrowth O.D.600: + (“+” indicates an O.D.600 of 0.100 to 0.250)
GBS strain 122 (III)
  10xMIC, regrowth O.D.600: −− (“−−” indicates an O.D.600 of 0.001 to 0.099)
  30xMIC, regrowth O.D.600: −− (“−−” indicates an O.D.600 of 0.001 to 0.099)
  100xMIC, regrowth O.D.600: −− (“−−” indicates an O.D.600 of 0.001 to 0.099)
  300xMIC, regrowth O.D.600: −− (“−−” indicates an O.D.600 of 0.001 to 0.099)
GBS strain 127 (Ia)
  10xMIC, regrowth O.D.600: −− (“−−” indicates an O.D.600 of 0.001 to 0.099)
  30xMIC, regrowth O.D.600: ++ (“++” indicates an O.D.600 of 0.251 to 0.750)
  100xMIC, regrowth O.D.600: ++ (“++” indicates an O.D.600 of 0.251 to 0.750)
  300xMIC, regrowth O.D.600: ++ (“++” indicates an O.D.600 of 0.251 to 0.750)
GBS strain 129 (V)
  10xMIC, regrowth O.D.600: −− (“−−” indicates an O.D.600 of 0.001 to 0.099)
  30xMIC, regrowth O.D.600: −− (“−−” indicates an O.D.600 of 0.001 to 0.099)
  100xMIC, regrowth O.D.600: −− (“−−” indicates an O.D.600 of 0.001 to 0.099)
  300xMIC, regrowth O.D.600: −− (“−−” indicates an O.D.600 of 0.001 to 0.099)
GBS strain 131 (V)
  10xMIC, regrowth O.D.600: −− (“−−” indicates an O.D.600 of 0.001 to 0.099)
  30xMIC, regrowth O.D.600: −− (“−−” indicates an O.D.600 of 0.001 to 0.099)
  100xMIC, regrowth O.D.600: −− (“−−” indicates an O.D.600 of 0.001 to 0.099)
  300xMIC, regrowth O.D.600: −− (“−−” indicates an O.D.600 of 0.001 to 0.099)
GBS strain 156 (Ia)
  10xMIC, regrowth O.D.600: −− (“−−” indicates an O.D.600 of 0.001 to 0.099)
  30xMIC, regrowth O.D.600: −− (“−−” indicates an O.D.600 of 0.001 to 0.099)
  100xMIC, regrowth O.D.600: −− (“−−” indicates an O.D.600 of 0.001 to 0.099)
  300xMIC, regrowth O.D.600: ++ (“++” indicates an O.D.600 of 0.251 to 0.750)
GBS strain 172 (NT)
  10xMIC, regrowth O.D.600: −− (“−−” indicates an O.D.600 of 0.001 to 0.099)
